Counter-ions that a name gives are not always drawn. Like-named read-outs stand apart in the source and are kept apart here.
Legend:
cGMP-PDE = target: T1, cGMP-PDE (Homo sapiens, UniProt O76074); test: cGMP-phosphodiesterase (PDE) Assay (human platelets); type: biochemical
T1 construct: cGMP-PDE was separated from other isozymes in human platelets; from tissue; host or cells: human platelets
Protocol: cGMP-phosphodiesterase (PDE) Assay
cGMP-PDE was separated from other isozymes in human platelets by a modification of the method of Thompson et. al. (Cyclic Nucleotide Phosphodiesterase (PDE), in Methods of Enzymatic analysis, Vol 4, p127-234, 1984). In enzyme inhibition assays, the test compounds were dissolved in 10% DMSO and then diluted with assay buffer (50 mM Tris-HCl, pH 8.0, 0.1 mM dithiothreitol, 2 mM EGTA and 10 u/ml snake venom), at final concentrations ranging from 10^-10 to 10^-6 M. Assays were performed at 0.1 μM substrate ([^3 H]-cGMP) concentration, at 30° C. for 10 minutes using enzyme dilutions which gave 10-20% hydrolysis of substrate. Each assay was initiated by addition of substrate and terminated by addition of anion exchange resin (Dowex 1-X8, 25 μg/mg) followed by centrifugation for 10 minutes (3000 rpm, at 4° C.). Radioactivity of supernatant (^3 H-GMP) was assayed by liquid scintillation counting.

[1] = tested on: Vascular smooth muscle cells (vSMCs); test: vSMC Proliferation ([3H]-thymidine, PDGF-stimulated); type: cell-based, male Wistar rats; conditions: Rattus norvegicus, PDGF 10 ng/ml stimulation
Protocol: Vascular smooth muscle cells (vSMCs) were prepared from explants of the thoracic aorta of 10 week old male Wistar rats by a modification of the method of Ross (J. Cell Biol., 50: 172, 1971). They were cultured in DMEM containing 10% fetal calf serum, 1% penicillin G and 1% streptomycin at 37° C. in a 95% air, 5% CO2 humidified atmosphere. vSMCs were seeded in 24 well plates and cultured in the presence of 10% fetal calf serum for 3 days. Cell growth then was arrested by transfer to serum free DMEA. After 24 hours, each test compound or vehicle was added to medium for 1 hour, and then cells were stimulated by PDGF (10 ng/ml). After 24 hours of additional incubation, [^3 H]-thymidine (1 μCi/ml) was added during the final 4 hours of incubation time, and trichloracetic acid insoluble radioactivity was assayed by liquid scintillation counting.

[2] = 0.1 μM [3H]-cGMP, 30° C., 10 minutes, read-out: IC50

| Structure (SMILES) | IC50 (cGMP-PDE; [2]) [nM] | IC50 (cGMP-PDE) [nM] | IC50 [1] [nM] |
| --- | --- | --- | --- |
| CC(=O)C=Cc1cn(Cc2ccccc2Cl)c2cc(C(N)=O)ccc12 [75-(38), 1-(2-Chlorobenzyl)-3-(3-oxo-1-butenyl)indole-6-carboxamide] | < 100 |  |  |
| NC(=O)c1ccc2c(C(=O)O)cn(Cc3ccccc3Cl)c2c1 [Example 63, 6-carbamoyl-1-(2-chlorobenzyl)indole-3-carboxylic acid] |  | < 100 |  |
| N#Cc1ccc2c3c(n(Cc4ccccc4Cl)c2c1)C(=O)CCC3 [67-(2), 9-(2-Chlorobenzyl)-8-oxo-5,6,7,8-tetrahydrocarbazole-2-carbonitrile] | < 100 |  | < 100 |
| CCCc1c(C(=O)C(C)C)c2ccc(C(N)=O)cc2n1Cc1ccc2ccccc2c1 [75-(27), 3-Isobutyryl-2-propyl-1-(2-naphthylmethyl)indole-6-carboxamide] |  | < 100 |  |
| NC(=O)c1ccc2c3c(n(Cc4ccccc4Cl)c2c1)C(=O)CC3 [75-(39), 4-(2-Chlorobenzyl)-3-oxo-1,2,3,4-tetrahydrocyclopent[b]indole-6-carboxamide] | < 100 |  |  |
| CCCc1c(C(=O)CO)c2ccc(C(N)=O)cc2n1Cc1ccccc1Cl [Example 60, 1-(2-chlorobenzyl)-3-hydroxyacetyl-2-propylindole-6-carboxamide] |  | < 100 | < 100 |
| CCCc1c(C(=O)CC)c2ccc(C(N)=O)cc2n1Cc1ccccc1Cl [Example 9, 1-(2-Chlorobenzyl)-3-propionyl-2-propylindole-6-carboxamide] |  | < 100 | < 100 |
| CCC(O)c1c(C(=O)C(C)C)c2ccc(C(N)=O)cc2n1Cc1ccccc1Cl (stereo not shown) [75-(30), 1-(2-Chlorobenzyl)-2-(1-hydroxypropyl)-3-isobutyrylindole-6-carboxamide] |  | < 100 | < 100 |
| CCCc1c(C(=O)CN2CCOCC2)c2ccc(C(N)=O)cc2n1Cc1ccccc1Cl [75-(10), 1-(2-Chlorobenzyl)-3-morpholinoacetyl-2-propylindole-6-carboxamide] |  | < 100 |  |
| CCCc1c(C(=O)C(C)C)c2ccc(C(N)=O)cc2n1Cc1ccccc1C(=O)OC [25-(2), 3-Isobutyryl-(2-methoxycarbonylbenzyl)-2-propylindole-6-carboxamide] |  | < 100 |  |
| CCCc1c(C#N)c2ccc(C(N)=O)cc2n1Cc1ccccc1Cl [37-(11), 1-(2-Chlorobenzyl)-3-cyano-2-propylindole-6-carboxamide] | < 100 |  |  |
| CCCc1c(C(=O)C(C)C)c2ccc(C(N)=O)cc2n1Cc1ccccc1C#N [37-(6), 1-(2-Cyanobenzyl)-3-isobutyryl-2-propylindole-6-carboxamide] |  | < 100 |  |
| CCCc1c(C(=O)C(C)C)c2ccc(C(N)=O)cc2n1Cc1ccc(Cl)cc1 [Example 26, 1-(4-chlorobenzyl)-3-isobutyryl-2-propylindole-6-carboxamide] |  | < 100 |  |
| CCCc1c(C(=O)C(C)C)c2cc(C(N)=O)ccc2n1Cc1ccccc1Cl [75-(4), 1-(2-Chlorobenzyl)-3-isobutyryl-2-propylindole-5-carboxamide] |  | < 100 |  |
| CC(=O)c1c(CC(C)C)c2ccc(C(N)=O)cc2n1Cc1ccccc1Cl [Example 18, 2-Acetyl-1-(2-chlorobenzyl)-3-isobutylindole-6-carboxamide] | < 100 |  |  |
| CCCc1c(C(=O)C(C)C)c2ccc(C(N)=O)cc2n1Cc1ccccn1 [Example 39, 3-isobutyryl-2-propyl-1-(2-pyridylmethyl)indole-6-carboxamide hydrochloride] |  | < 100 |  |
| COCc1c(C(=O)C(C)C)c2ccc(C(N)=O)cc2n1Cc1ccccc1Cl [37-(14), 1-(2-Chlorobenzyl)-3-isobutyryl-2-methoxymethylindole-6-carboxamide] |  | < 100 | < 100 |
| CCC(=O)c1c(CC)n(Cc2ccccc2Cl)c2cc(C(N)=O)ccc12 [Example 15, 1-(2-Chlorobenzyl) -2-ethyl-3-propionylindole-6-carboxamide] |  | < 100 | < 100 |
| CCc1c(CC)n(Cc2ccccc2Cl)c2cc(C(N)=O)ccc12 [37-(17), 1-(2-Chlorobenzyl)-2,3-diethylindole-6-carboxamide] | < 100 |  |  |

| Structure (SMILES) | IC50 (cGMP-PDE; [2]) [nM] | IC50 (cGMP-PDE) [nM] | IC50 [1] [nM] |
| --- | --- | --- | --- |
| CCCc1c(C(=O)C(C)C)c2ccc(C(=O)NO)cc2n1Cc1ccccc1Cl [Example 23, 1-(2-chlorobenzyl)-3-isobutyryl-2-propylindole-6-carbohydroxamic acid] |  | < 100 | < 100 |
| CCCc1c(C(C)=NO)c2ccc(C(N)=O)cc2n1Cc1ccccc1Cl [Example 70, 1-(2-chlorobenzyl)-3-(1-hydroxyiminoethyl)-2-propylindole-6-carboxamide] | < 100 |  |  |
| CCCc1c(C=O)c2ccc(C(=O)NS(=O)(=O)c3ccccc3)cc2n1Cc1ccccc1Cl [22-(6), 1-(2-Chlorobenzyl)-3-formyl-N-phenylsulfonyl-2-propylindole-6-carboxamide] |  | < 100 | < 100 |
| CCCc1c(C(=O)C(C)C)c2ccc(C(=O)OC)cc2n1Cc1ccccc1Cl [Example 4, Methyl 1-(2-chlorobenzyl)-3-isobutyryl-2-propylindole-6-carboxylate] |  | < 100 |  |
| CCCc1c(C(=O)C(C)C)c2ccc(C(=O)NOC)cc2n1Cc1ccccc1Cl [24-(1), 1-(2-Chlorobenzyl)-3-isobutyryl-O-methyl-2-propylindole-6-carbohydroxamic acid] |  | < 100 | < 100 |
| CCCc1c(C(=O)C(C)C)c2ccc(C(N)=O)cc2n1Cc1ccc2sccc2c1 [75-(23), 1-(Benzo[b]thiophen-5-ylmethyl)-3-isobutyryl-2-propylindole-6-carboxamide] |  | < 100 |  |
| CCc1c(C(O)C(C)C)c2ccc(C(N)=O)cc2n1Cc1ccccc1Cl (stereo not shown) [Example 69, 1-(2-Chlorobenzyl)-2-ethyl-3-(1-hydroxy-2-methylpropyl)indole-6-carboxamide] | < 100 |  |  |
| CCc1c(Cl)n(Cc2ccccc2Cl)c2cc(C(N)=O)ccc12 [75-(35), 2-Chloro-1-(2-chlorobenzyl)-3-ethylindole-6-carboxamide] | < 100 |  |  |
| CCCc1c(C(=O)C(C)C)c2ccc(C(N)=O)cc2n1Cc1cccc(Cl)c1 [27-(2), 1-(3-Chlorobenzyl)-3-isobutyryl-2-propylindole-6-carboxamide] |  | < 100 |  |
| CC=Cc1c(C(=O)C(C)C)c2ccc(C(N)=O)cc2n1Cc1ccccc1Cl [75-(29), 1-(2-Chlorobenzyl)-3-isobutyryl-2-(1-propenyl)indole-6-carboxamide] |  | < 100 | < 100 |
| CCCc1c(C(=O)C(C)C)c2ccc(NC=O)cc2n1Cc1ccccc1Cl [Example 58, 1-(2-chlorobenzyl)-6-formamido-3-isobutyryl-2-propylindole] |  | < 100 |  |
| Cc1c(C(=O)C(C)C)c2ccc(C(N)=O)cc2n1Cc1c(Cl)sc2ccccc12 [75-(21), 1-(2-Chlorobenzo[b]thiophen-3-ylmethyl)-3-isobutyryl-2-methylindole-6-carboxamide] |  | < 100 |  |
| CCCc1c(C(N)=O)c2ccc(C(N)=O)cc2n1Cc1ccccc1Cl [75-(15), 1-(2-Chlorobenzyl)-2-propylindole-3,6-dicarboxamide] |  | < 100 |  |
| CCCc1c(C(=O)C=C(C)C)c2ccc(C(N)=O)cc2n1Cc1ccccc1Cl [73-(40), 1-(2-Chlorobenzyl)-3-(3-methyl-2-butenoyl)-2-propylindole-6-carboxamide] |  | < 100 |  |
| CCCc1c(C(=O)C(C)C)c2ccc(C(N)=O)cc2n1Cc1ccc(Cl)s1 [27-(5), 1-[(5-Chlorothien-2-yl)methyl]-3-isobutyryl-2-propylindole-6-carboxamide] |  | < 100 | < 100 |
| CCC(=O)c1c(CC)c2ccc(C(N)=O)cc2n1Cc1ccccc1Cl [Example 21, 1-(2-Chlorobenzyl)-3-ethyl-2-propionylindole-6-carboxamide] | < 100 |  |  |
| CCCc1c(C(=O)C(C)C)c2ccc(C(N)=O)cc2n1Cc1ccccc1I [37-(3), 1-(2-Iodobenzyl)-3-isobutyryl-2-propylindole-6-carboxamide] |  | < 100 |  |
| CCCc1c(C(=O)Cc2ccccc2)c2ccc(C(N)=O)cc2n1Cc1ccccc1Cl [38-(2), 1-(2-Chlorobenzyl)-3-phenylacetyl-2-propylindole-6-carboxamide] |  | < 100 | < 100 |
